The source of these data is US10125157B2, “Derivatives of oxazaphosphorines that are pre-activated, use and method of preparation” (priority 2010, dated 2018).

Read-outs that look alike come from different tables or passages of the source.

Data set [1] deals with several cell lines. The experiment in a line: In vitro cytotoxicity over the panel of cell lines (MTS). The conditions noted are these: all cell lines tested, concentrations between 0.1 and 100 μM. From the text: Cytotoxicity of SQ-IFO and SQ-thio-IFO nanoparticles was studied in several cell lines:
• A549: human alveolar basal epithelial cell adenocarcinoma • MCF-7: human breast carcinoma • MCF-7 MDR: multidrug resistant human breast carcinoma • B16F10: mouse melanoma • KB 3.1: human epidermoid carcinoma • M109: mouse lung tumor cells • MiaPaCa-2: human pancreatic carcinoma • UW-479: human pediatric glioma • IGR OV1: human ovarian cancer • SK-N-MC: neuroblastoma, reclassified as Ewing (expression of EWS/Flip-1 oncogene)
The cell lines were maintained in DMEM or RPMI medium supplemented with 10% fetal calf serum and 1% antibiotics (100 U/mL penicillin and 100 μg/mL streptomycin) in an incubator at 37° C. in a humid 5% carbon dioxide atmosphere.
The cells were seeded in 96-well plates (TPP). Seeding was optimized for each line for an incubation time of 72 hours.
A549, MCF-7, B16F10, M109, MiaPaCa-2 cells were seeded at 5·10^3 cells/well. […] cells were seeded at 2·10^3 cells/well, IGR-OV1 cells at 10^4 cells/well and UW479 and SK-N-MC cells at 5·10^4 cells/well.
The compounds SQ-IFO and SQ-thio-IFO were synthesized according to the protocol described above. For each compound, an aqueous suspension of nanoparticles was prepared using the technique described by Fessi, Int. J. Pharm, 1989, 55, R1-R4.
For each compound, different concentrations between 0.1 and 100 μM were tested by serial dilution of a 2 mg/mL stock solution for SQ-IFO and a 10 mg/mL stock solution for SQ-thio-IFO in culture medium.
After 72 hours of incubation, cell viability was determined by observing the reduction of MTS reagent to formazan (CellTiter 96 AQueous One Solution kit, Promega). 20 μL of a 5 mg/mL solution of MTS in PBS were added per well. The incubation time of the MTS was optimized for each cell line; the absorbance at 490 nm was then read using a plate reader (EL808, Biotek).
The results are expressed as percentage of untreated cells. The data were treated with Prism 4 software (Graph Pad Software, San Diego). IC50 values were thus calculated for each line. Ifosfamide and squalenol were used as controls.

The test system of data set [2] is IGR-OV1 (Ovary). Nature of the data set: In vitro cytotoxicity, MTS cell viability test, 72 h. The conditions noted are these: for IC50: Homo sapiens; for cytotoxic activity (in words): IGR-OV1 (Ovary) cells. It counts as cell-based, human. The method, then:
(§1) The cells were seeded in 96-well plates (TPP).
(§2) J. Pharm, 1989, 55, R1-R4.
(§3) The results are expressed as percentage of untreated cells. […] IC50 values were thus calculated for each line. Ifosfamide and squalenol were used as controls.

Data set [3] deals with UW 479 (Glioma). The data set is described as above. Type of data set: cell-based, human. The settings on record: for IC50: Homo sapiens; for cytotoxic activity (in words): UW 479 (Glioma) cells. As to the method:
as §1, §2, §3

The test system of data set [4] is MCF-7 MDR. Described as above. Type of data set: cell-based. The conditions noted are these: Homo sapiens. The method, then:
as §1, §2, §3

The test system of data set [5] is MiaPaCa-2. The data set is described as above. It counts as cell-based. The settings on record: Homo sapiens. The method, then: as §1, §2, §3
Data set [6] deals with B16F10. The data set is described as above. It counts as cell-based. The conditions noted are these: Mus musculus. The method, then:
as §1, §2, §3

The subject of data set [7] is MCF-7. Described as above. Type of data set: cell-based. The conditions noted are these: Homo sapiens. As to the method: as §1, §2, §3
For data set [8], the system named is SK-N-MC (Ewing). The data set is described as above. The conditions noted are these: for IC50: Homo sapiens; for cytotoxic activity (in words): SK-N-MC (Ewing) cells. Type of data set: cell-based. The method, then: as §1, §2, §3
Data set [9] relates to A549. The description is as above. Type of data set: cell-based. The settings on record: Homo sapiens. The method, then:
as §1, §2, §3

For data set [10], the system named is KB 3.1. Described as above. The conditions noted are these: Homo sapiens. Type of data set: cell-based. As to the method:
as §1, §2, §3

Data set [11] deals with M109. Described as above. It counts as cell-based, mouse. The conditions noted are these: for cytotoxic activity (in words): M109 cell line; for IC50: Mus musculus. As to the method:
as §1, §2, §3

Data set [12] has as its system RD human pediatric rhabdomyosarcoma model. The experiment in a line: In vivo efficacy, human rhabdomyosarcoma xenografted in nude mice. The settings on record: RD xenograft, treated when tumor volume >80 mm^3, preliminary results. The method, then: In vivo cytotoxic efficacy was evaluated first on a model of human rhabdomyosarcoma xenografted in nude mice. The model used is the RD human pediatric rhabdomyosarcoma model. The cells were first amplified in culture and counted. 10·10^6 cells were injected subcutaneously in both flanks of each mouse. After graft uptake, when tumor volume reached >80 mm^3, the mice were treated with IFO-SQ or placebo.

A short description of data set [13]: Nanoparticle size in aqueous medium. It counts as physicochemical. The settings on record: for average size of nanoparticles: aqueous suspension prepared by the technique of Fessi, spherical; for size of nanoparticles: self-assembly in an aqueous medium.
Text: For example, the most recent and most promising application concerns the attachment of a squalene residue by this method by adding squalenol or squalene-thiol in the presence of BF3ET2O on the phosphoryl-iminium produced from 4-methoxy-MFI (Schemes 7 and 8). The compounds formed, SQ-4-O-MFI and SQ-4-S-MFI, have two interesting properties. The first is that they are pre-activated forms of MFI due to oxidation in position 4 that can release, in a slightly acidic aqueous medium, the alkylating mustard directly without metabolic activation. The second is that they are capable of self-assembly in an aqueous medium in the form of nanoparticles of a size of about 160 nm.
as §2

The nature of data set [14]: Chemical stability of the 4-methoxy analogue. Type of data set: physicochemical. The settings on record: releases isophosphoramide mustard rapidly.
The conditions of data set [15]: compared with the active metabolite of IFO; cited from earlier work.

In the case of tris-nor-squalenol [reference compound], in data set [1], the “in vitro cytotoxicity (in words)” value is listed as “did not exhibit significant cytotoxicity”.

On to `CC(C)=CCC/C(C)=C/CC/C(C)=C/CC/C=C(\C)CC/C=C(\C)CCCOC1CCOP(=O)(NCCCl)N1CCCl` (stereo not shown) [Ifosfamide SQ], for which the IC50 in data set [2] (IGROV-1, 72 h) was over 100 µM; in data set [3] (72 h) it was over 100 µM; in data set [4] (MCF7, 72 h), 78.8 µM; in data set [5] (MIA PaCa-2, 72 h) it was 32.5 µM; in [6] (B16-F10, 72 h) it was 73 µM; in data set [7] (MCF7, 72 h), 43.6 µM. The IC50 in [8] (SK-N-MC, 72 h) was over 100 µM; in data set [9] (A549, 72 h) it was 32.5 µM; in [10] (KB 3-1, 72 h), 50 µM; in data set [11] (M109, 72 h), over 100 µM. In addition, the “cytotoxic activity (in words)” value in [2], in [3], in data set [8] and in [11] was “not observed” each time. Also, in [1], the “in vitro cytotoxicity (in words)” value was “high in vitro cytotoxicity”. The “tumor volume compared to mice treated with placebo” value in [12] is “significant decrease in tumor volume”. The “average size of nanoparticles” value in [13] amounted to 182 nm. In data set [13], the size of nanoparticles entry is given as “about 160 nm”.

As to `CC(C)=CCC/C(C)=C/CC/C(C)=C/CC/C=C(\C)CC/C=C(\C)CCC(=O)NCCSC1CCOP(=O)(NCCCl)N1CCCl` (stereo not shown) [Ifosfamide-thio-SQ, (2-chloro-ethyl)-[3-(2-chloro-ethyl)-2-oxo-4-mercaptoethylamidosqualen-[1,3,2]oxazaphosphinan-2-yl]-amine], the IC50 in data set [2] (IGROV-1, 72 h) was 81 µM; in [3] (72 h), 65 µM; in [4] (MCF7, 72 h), 80 µM; in data set [5] (MIA PaCa-2, 72 h), 4.4 µM; in data set [6] (B16-F10, 72 h) it was 16.9 µM; in [7] (MCF7, 72 h), 10.9 µM. For the same molecule, the IC50 in data set [8] (SK-N-MC, 72 h) came out at 19 µM; in data set [9] (A549, 72 h), 5.3 µM; in data set [10] (KB 3-1, 72 h), 2.96 µM; in [11] (M109, 72 h) it was 9.2 µM. Besides, the “cytotoxic activity (in words)” value in data set [2], in data set [3], in data set [8] and in data set [11] was “high cytotoxic activity” in each case. Further, the “in vitro cytotoxicity (in words)” value in [1] was “high in vitro cytotoxicity”. Besides, the “average size of nanoparticles” value in [13] came to 182 nm. Also, the size of nanoparticles entry in data set [13] is “about 160 nm”.

As to `COC1CCOP(=O)(NCCCl)N1CCCl` (stereo not shown) [4-MeO-IFO, 4-methoxy-ifosfamide], the chemical stability result in data set [14] is “quite unstable”. Also, in data set [15], the cytotoxic potency entry is listed as “equivalent to that of the active metabolite of IFO”.

For `O=P1(NCCCl)OCCCN1CCCl` (stereo not shown) [Ifosfamide, reference compound], the IC50 was over 100 µM in data set [2] (IGROV-1, IGR-OV1 (Ovary), 72 h incubation, nanoparticle suspension, MTS, read-out: IC50); over 100 µM in data set [3] (UW 479 (Glioma), 72 h incubation, nanoparticle suspension, MTS, read-out: IC50); over 100 µM in [4] (MCF7, MCF-7 MDR, 72 h incubation, nanoparticle suspension, MTS, read-out: IC50); over 100 µM in [5] (MIA PaCa-2, MiaPaCa-2, 72 h incubation, nanoparticle suspension, MTS, read-out: IC50); over 100 µM in data set [6] (B16-F10, B16F10, 72 h incubation, nanoparticle suspension, MTS, read-out: IC50); over 100 µM in [7] (MCF7, MCF-7, 72 h incubation, nanoparticle suspension, MTS, read-out: IC50). In addition, the IC50 in data set [8] (SK-N-MC (Ewing), 72 h incubation, nanoparticle suspension, MTS, read-out: IC50) was over 100 µM; in [9] (A549, 72 h incubation, nanoparticle suspension, MTS, read-out: IC50), over 100 µM; in [10] (KB 3-1, KB 3.1, 72 h incubation, nanoparticle suspension, MTS, read-out: IC50) it was over 100 µM; in [11] (M109, 72 h incubation, nanoparticle suspension, MTS, read-out: IC50), over 100 µM. For the same molecule, the “in vitro cytotoxicity (in words)” value in data set [1] is “did not exhibit significant cytotoxicity”.

Broadly, the IC50 is the midpoint of a concentration-inhibition curve.
